{"source": "patent US11787850B2", "about": "“Peptidic TGF-beta antagonists” (priority 2015, dated 2023)", "key": {"[1]": {"test_system": "TGF-β-induced migration of squamous cell carcinoma (A431) cells", "assay": "Scratch (wound closure) migration assay, A431 cells", "type": "cell-based", "conditions": "100 pM TGF-β1, 24 hours, P16 concentrations as indicated (FIG. 27)", "procedure": "FIG. 10A and FIG. 10B illustrate that peptides B, E and X-1 inhibit TGF-β-induced cellular migration of A431 cells in vitro. Results are shown prior to treatment (0 hr, top panels) and after treatment (24 hr, bottom panels) for each of the peptides used. (See FIG. 2 and Table 1 for the amino acid sequence identity of the peptides).\nA431 cells were grown to 80-90% confluence and serum-starved overnight. The next day, cells were scratched with a plastic pipette tip (time 0 hour) and then left untreated or treated for 24 hours with 100 pM TGF-β1 alone or in the presence of P16 as indicated. (FIG. 27A) Digital images were captured at 0 h and 24 h using an EVOS XL Core microscope. (FIG. 27B) Micrographs were subsequently quantitated to determine the percentage of the wound area that had closed following 24 hours in the presence or absence of P16, as indicated.\nCells were scratched with a pipette tip and treated without or with 100 pM TGF-b1 alone or in the presence of 10 nM Peptide A or Peptide A1 (C31S mutant). Pictures were taken at 0 and 24 hrs. Peptide A but not Peptide A1 inhibits TGF-b-induced migration in A431 cells. Peptide A contains monomeric and dimeric forms whereas Peptide A1 contains a C31S mutation to prevent intermolecular disulfide bond formation so that it forms monomers only.\nSquamous cell carcinoma (A431) or breast cancer (MDA-MB-231) cells were grown to 80-90% confluence and serum-starved overnight. The next day, cells were scratched with a plastic pipette tip (time 0 hour) and then left untreated or treated for 24 hours with 100 pM TGF-β1 alone or in the presence of 10 nM peptide B (100 aa), E (67 aa), or X1 (P28, 28 aa). Digital images were captured at 0 h and 24 h (20× magnification) using an EVOS XL Core microscope."}, "[2]": {"test_system": "TGF-b-induced phosphorylation of Smad2 in squamous cell carcinoma (A431) cells", "assay": "Western blot for phospho-Smad2 in A431 cells", "type": "cell-based", "conditions": "10 nM peptide, 100 pM TGF-b, 45 min at 4 C (FIG. 32)", "procedure": "A431 cancer cells treated with 10 nM of P16.2 (negative peptide control), P16 or PA in the absence or presence of 100 pM TGF-b, followed by 45 min of incubation at 4 C. Cells lysates were analyzed by Western blot using an anti-phosphoSmad2 antibody. Actin expression was used as loading control."}, "[3]": {"test_system": "TGF-β-induced fibrotic response in primary human fibroblasts isolated from scleroderma patients", "assay": "Immunoblot of fibrotic markers in scleroderma patient fibroblasts", "type": "cell-based", "conditions": "various concentrations of P16, 20 pM TGF-β, 24 hours (FIG. 31)", "source_text": "(FIG. 30A) Cell lysates were separated by gel electrophoresis, transferred to a membrane, and immunoblotted with antibodies against the indicated proteins. (FIG. 30B) The data shown represent the mean expression levels of 3 different biological replicates calculated by densitometry of fibronectin, PAI-1, and CTGF intensity levels normalized to α-tubulin. Error bars represent the standard deviation of the replicate experiments. A single asterisk designates a t test P value of less than 0.05.\nFibroblasts were starved for 36 hours, then treated with 20 pM TGF-β and various concentrations of P16 as indicated for 24 hours. (FIG. 31A) Cell lysates were separated by gel electrophoresis, transferred to a membrane, and immunoblotted with antibodies against the indicated proteins. (FIG. 31B) The data shown represent the mean expression levels of 3 different biological replicates calculated by densitometry of fibronectin, PAI-1, and CTGF intensity levels normalized to α-tubulin. Error bars represent the standard deviation of the replicate experiments. A single asterisk designates a t test P value of less than 0.05, and a double asterisk indicates a P value of less than 0.01."}, "[4]": {"test_system": "bleomycin-induced skin fibrosis", "assay": "Bleomycin-induced skin fibrosis (scleroderma) mouse model", "type": "in vivo", "procedure": "Wild type mice were treated with bleomycin ([…]) to induce skin fibrosis or PBS (negative control). Mice were treated with CD109 ([…]), P16 ([…]), or PBS by 100 μL subcutaneous injection every other day for 28 days for a total of 14 injections.\n(§1) Mice were injected intradermally with bleomycin (5 mg) in […] PBS or PBS alone every second day for 28 days. Mice were co-injected without or with 1.0 mg recombinant CD109 protein or P16 peptide every second day for 28 days (14 mg total). Skin tissue was harvested and immunohistochemical analysis was performed for the detection of Fibronectin, α-sma, CTGF and Type-1 Collagen. Representative images of sections of skin derived from CD109 and p16 treated mice on day 28 after initial bleomycin or PBS treatment are shown. A total of 4-6 different mice per treatment group were analyzed. Original magnification x 20.\nas §1, with “phospho-Smad2, phospho-Smad1” for “Fibronectin, α-sma, CTGF”, “TGF-β levels.” for “Type-1 Collagen.”"}, "[5]": {"test_system": "TGF-b induced cellular invasion of squamous cell carcinoma (A431) cells", "assay": "Matrigel invasion assay, A431 cells", "type": "cell-based", "conditions": "10 nM peptide, 100 pM TGF-b, 24 hrs (FIG. 38)", "procedure": "A431 cancer cells (8000 cells) were seeded on a BioCoat™ Matrigel® Invasion Chamber and treated with 10 nM of P16.2 (negative peptide control), P16 or PA in the absence or presence of 100 pM TGF-b, followed by 24 hrs of incubation. Invasive cells (in the lower chambers) were stained by crystal violet dye, photographed and counted. Representative photos (A) and statistical plots of invasion (B) are shown. The data are shown as mean±SD of the number of invasive cells for three independent experiments. **P<0.01 and ***P<0.001 as compared with controls. […] Squamous cell carcinoma (epidermoid A431 and head and neck FaDu) cells were stimulated with 100 pM of TGF-b1, then treated with 10 nM of peptide 16.2, P16, PA or CD109 for 24 hours. Cells were analysed by Flow cytometry and CD133 positive cell population, which represent cancer stem cell population, were quantified."}, "[6]": {"test_system": "TGF-β1-induced Smad3-driven (CAGA12-lux) transcriptional activity", "assay": "Luciferase reporter assay in HEK293-(CAGA)12 cells", "type": "cell-based"}, "[7]": {"conditions": "co-injected with bleomycin every second day for 28 days (FIG. 37)"}}}
{"sequence": "ETWIWLDTNMGSRIYQ [Peptide P16]", "values": [{"measurement": "inhibition of A431 cell migration, dose-dependent", "setting": "[1]", "value": "inhibit"}, {"measurement": "inhibition of TGF-b-induced phosphorylation of Smad2", "setting": "[2]", "value": "inhibit"}, {"measurement": "inhibition of TGF-β-induced fibrotic response, dose-dependent", "setting": "[3]", "value": "inhibit"}, {"measurement": "SMAD1 phosphorylation in skin (immunohistochemistry)", "setting": "[4]; [7]", "value": "enhancing"}, {"measurement": "SMAD2 phosphorylation in skin (immunohistochemistry)", "setting": "[4]; [7]", "value": "reduces"}, {"measurement": "TGF-β expression in skin (immunohistochemistry)", "setting": "[4]; [7]", "value": "reduces"}, {"measurement": "extracellular matrix production (Fibronectin, α-sma, CTGF, Type-1 Collagen, immunohistochemistry)", "setting": "[4]; co-injected with bleomycin every second day for 28 days, skin on day 28 (FIG. 36)", "value": "reduces"}, {"measurement": "collagen content as assessed by trichrome staining", "setting": "[4]; subcutaneous injection every other day for 28 days (FIG. 35A)", "value": "reducing"}, {"measurement": "dermal collagen content, ratio of trichrome stain to total skin area", "setting": "[4]; subcutaneous injection every other day for 28 days (FIG. 35B)", "value": "reducing"}, {"measurement": "dermal thickness", "setting": "[4]; trichrome staining, subcutaneous injection every other day for 28 days (FIG. 35A)", "value": "reducing"}, {"measurement": "inhibition of TGF-b induced cellular invasion", "setting": "[5]", "value": "significantly inhibit"}, {"measurement": "inhibition of TGF-β1-induced CAGA12-lux activity", "setting": "[6]; 10 nM or 5 nM peptide, 100 pM TGF-β1, 18 hours (FIG. 5)", "value": "inhibited"}, {"measurement": "inhibition of TGF-β1-induced CAGA12-lux activity", "setting": "[6]; 10 nM peptide, 100 pM TGF-β1, 18 hours (FIG. 6)", "value": "inhibited"}]}
